Reference: patent US12612407B2, “Imidazo[2,1-f][1,2,4]triazin-4-amine derivatives as TLR7 agonist” (BEIGENE, LTD., priority 2020, dated 2026)

Biological target: T1, human TLR7 (Homo sapiens, UniProt Q9NYK1)
T1 construct: host or cells: HEK293 (HEK-Blue hTLR7)
T1 sequence (Q9NYK1 27-1049): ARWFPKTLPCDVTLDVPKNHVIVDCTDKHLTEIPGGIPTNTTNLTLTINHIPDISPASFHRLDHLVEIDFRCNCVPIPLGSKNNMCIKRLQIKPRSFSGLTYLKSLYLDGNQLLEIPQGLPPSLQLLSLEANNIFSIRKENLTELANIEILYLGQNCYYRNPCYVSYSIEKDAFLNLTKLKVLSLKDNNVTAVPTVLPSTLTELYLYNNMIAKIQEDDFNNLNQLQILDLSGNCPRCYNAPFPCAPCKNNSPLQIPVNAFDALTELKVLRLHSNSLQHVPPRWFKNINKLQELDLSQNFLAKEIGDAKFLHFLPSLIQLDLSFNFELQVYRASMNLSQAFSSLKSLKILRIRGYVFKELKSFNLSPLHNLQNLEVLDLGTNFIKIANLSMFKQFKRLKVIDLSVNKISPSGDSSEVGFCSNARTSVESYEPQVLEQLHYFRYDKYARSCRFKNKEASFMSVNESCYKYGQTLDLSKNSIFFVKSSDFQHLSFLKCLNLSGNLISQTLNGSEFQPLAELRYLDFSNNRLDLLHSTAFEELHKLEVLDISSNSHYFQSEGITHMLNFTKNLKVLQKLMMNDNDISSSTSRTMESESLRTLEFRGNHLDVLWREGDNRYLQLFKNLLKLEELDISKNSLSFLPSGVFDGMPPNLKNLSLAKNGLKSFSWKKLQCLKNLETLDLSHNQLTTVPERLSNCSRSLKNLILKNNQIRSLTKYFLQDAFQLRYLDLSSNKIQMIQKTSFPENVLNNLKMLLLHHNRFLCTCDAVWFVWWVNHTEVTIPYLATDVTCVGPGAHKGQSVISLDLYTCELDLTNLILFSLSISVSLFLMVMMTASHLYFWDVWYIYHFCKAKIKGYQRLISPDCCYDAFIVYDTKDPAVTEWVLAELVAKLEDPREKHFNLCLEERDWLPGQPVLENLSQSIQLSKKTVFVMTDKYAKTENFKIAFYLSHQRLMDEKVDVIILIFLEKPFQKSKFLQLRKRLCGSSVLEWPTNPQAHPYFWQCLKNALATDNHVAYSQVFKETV
Test: HEK293-Blue hTLR7 Reporter Assay (QUANTI-BLUE, SEAP readout)
Type: cell-based
Conditions: HEK-Blue-hTLR7 cells, 24 hrs treatment, Table 1, B1-B232
Method in brief: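 Compound titrations were applied for 24 h at 37° C to reporter HEK293 cells (4×10^4 per well) in which human TLR7 activation drives secreted alkaline phosphatase. Supernatants reacted with Quanti-blue 10-30 min, absorbance read at 620-655 nm, and EC50 derived by sigmoidal curve fitting.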

SMILES	EC50 [nM]
Cc1cc(Cc2cnc3c(N)nc(OC4CCCCC4)nn23)cnc1N1CCNCC1 [Compound B167, 2-(cyclohexyloxy)-7-((5-methyl-6-(piperazin-1-yl)pyridin-3-yl)methyl)imidazo[2,1-f][1,2,4]triazin-4-amine]	497
CCCCOc1nc(N)c2ncc(Cc3cnc(N4C[C@@H]5C[C@H]4CN5)c(C)c3)n2n1 [Compound B168, 7-((6-((1S,4S)-2,5-diazabicyclo[2.2.1]heptan-2-yl)-5-methylpyridin-3-yl)methyl)-2-butoxyimidazo[2,1-f][1,2,4]triazin-4-amine]	124
CCCCOc1nc(N)c2ncc(Cc3cnc(N4CCN(C(=O)CN(CC)CC)CC4)c(C)c3)n2n1 [Compound B170, 1-(4-(5-((4-amino-2-butoxyimidazo[2,1-f][1,2,4]triazin-7-yl)methyl)-3-methylpyridin-2-yl)piperazin-1-yl)-2-(diethylamino)ethan-1-one]	29
Cc1cc(Cc2cnc3c(N)nc(OC4CCCC4)nn23)cnc1N1CCNCC1 [Compound B172, 2-(cyclopentyloxy)-7-((5-methyl-6-(piperazin-1-yl)pyridin-3-yl)methyl)imidazo[2,1-f][1,2,4]triazin-4-amine]	260
COCC(C)Oc1nc(N)c2ncc(Cc3cnc(N4CCNCC4)c(C)c3)n2n1 (centres unmarked) [Compound B174, 2-((1-methoxypropan-2-yl)oxy)-7-((5-methyl-6-(piperazin-1-yl)pyridin-3-yl)methyl)imidazo[2,1-f][1,2,4]triazin-4-amine]	48
CCCCOc1nc(N)c2ncc(Cc3cnc(N4CCN(C(=O)CN(C)C)[C@@H](C)C4)c(C)c3)n2n1 [Compound B179, (S)-1-(4-(5-((4-amino-2-butoxyimidazo[2,1-f][1,2,4]triazin-7-yl)methyl)-3-methylpyridin-2-yl)-2-methylpiperazin-1-yl)-2-(dimethylamino)ethan-1-one]	38
CCCCCc1nc(N)c2ncc(Cc3cnc(N4CCNCC4)c(C)c3)n2n1 [Compound B180, 7-((5-methyl-6-(piperazin-1-yl)pyridin-3-yl)methyl)-2-pentylimidazo[2,1-f][1,2,4]triazin-4-amine]	270
CCCCOc1nc(N)c2ncc(Cc3cnc(N4CCNCC4)c(CC)c3)n2n1 [Compound B183, 2-butoxy-7-((5-ethyl-6-(piperazin-1-yl)pyridin-3-yl)methyl)imidazo[2,1-f][1,2,4]triazin-4-amine]	93
CCC(CC)Oc1nc(N)c2ncc(Cc3cnc(N4CCC(N(C)C)CC4)c(C)c3)n2n1 [Compound B187, 7-((6-(4-(dimethylamino)piperidin-1-yl)-5-methylpyridin-3-yl)methyl)-2-(pentan-3-yloxy)imidazo[2,1-f][1,2,4]triazin-4-amine]	29
CCC(CC)Oc1nc(N)c2ncc(Cc3cnc(N4CCC(CN(C)C)CC4)c(C)c3)n2n1 [Compound B189, 7-((6-(4-((dimethylamino)methyl)piperidin-1-yl)-5-methylpyridin-3-yl)methyl)-2-(pentan-3-yloxy)imidazo[2,1-f][1,2,4]triazin-4-amine]	19
Cc1cc(Cc2cnc3c(N)nc(OCC4CCCCC4)nn23)cnc1N1CCNCC1 [Compound B192, 2-(cyclohexylmethoxy)-7-((5-methyl-6-(piperazin-1-yl)pyridin-3-yl)methyl)imidazo[2,1-f][1,2,4]triazin-4-amine]	2680

The next compounds have a lower EC50 than those just listed; values first:

EC50 [nM]	SMILES
8	CCC(CC)Oc1nc(N)c2ncc(Cc3cnc(N4CCNCC4)c(C)c3)n2n1 [Compound B162, 7-((5-methyl-6-(piperazin-1-yl)pyridin-3-yl)methyl)-2-(pentan-3-yloxy)imidazo[2,1-f][1,2,4]triazin-4-amine]
2.5	CCCC(CC)Oc1nc(N)c2ncc(Cc3cnc(N4CCC(N(C)C)CC4)c(C)c3)n2n1 (centres unmarked) [Compound B163, 7-((6-(4-(dimethylamino)piperidin-1-yl)-5-methylpyridin-3-yl)methyl)-2-(hexan-3-yloxy)imidazo[2,1-f][1,2,4]triazin-4-amine]
4.1	CCCC(CC)Oc1nc(N)c2ncc(Cc3cnc(N4CCC(CN(C)C)CC4)c(C)c3)n2n1 (centres unmarked) [Compound B164, 7-((6-(4-((dimethylamino)methyl)piperidin-1-yl)-5-methylpyridin-3-yl)methyl)-2-(hexan-3-yloxy)imidazo[2,1-f][1,2,4]triazin-4-amine]
2.6	CCCC(C)Nc1nc(N)c2ncc(Cc3cnc(N4CCC(NC)CC4)c(C)c3)n2n1 (centres unmarked) [Compound B166, 7-((5-methyl-6-(4-(methylamino)piperidin-1-yl)pyridin-3-yl)methyl)-N2-(pentan-2-yl)imidazo[2,1-f][1,2,4]triazine-2,4-diamine]
2.9	CCCC(CC)Oc1nc(N)c2ncc(Cc3cnc(N4CCN(C(=O)CN(C)C)CC4)c(C)c3)n2n1 (centres unmarked) [Compound B169, 1-(4-(5-((4-amino-2-(hexan-3-yloxy)imidazo[2,1-f][1,2,4]triazin-7-yl)methyl)-3-methylpyridin-2-yl)piperazin-1-yl)-2-(dimethylamino)ethan-1-one]
3.3	CCC(CC)Nc1nc(N)c2ncc(Cc3cnc(N4CCN(C(=O)CNC)CC4)c(C)c3)n2n1 [Compound B175, 1-(4-(5-((4-amino-2-(pentan-3-ylamino)imidazo[2,1-f][1,2,4]triazin-7-yl)methyl)-3-methylpyridin-2-yl)piperazin-1-yl)-2-(methylamino)ethan-1-one]
8.6	CCCC(CCO)Oc1nc(N)c2ncc(Cc3cnc(N4CCN(C(=O)CN(C)C)CC4)c(C)c3)n2n1 (centres unmarked) [Compound B176, 1-(4-(5-((4-amino-2-((1-hydroxyhexan-3-yl)oxy)imidazo[2,1-f][1,2,4]triazin-7-yl)methyl)-3-methylpyridin-2-yl)piperazin-1-yl)-2-(dimethylamino)ethan-1-one]
7.8	CCCC(CC)Oc1nc(N)c2ncc(Cc3cnc(N4CCN(C(=O)CNC)CC4)c(C)c3)n2n1 (centres unmarked) [Compound B181, 1-(4-(5-((4-amino-2-(hexan-3-yloxy)imidazo[2,1-f][1,2,4]triazin-7-yl)methyl)-3-methylpyridin-2-yl)piperazin-1-yl)-2-(methylamino)ethan-1-one]
3.6	CCCC(CCC)Nc1nc(N)c2ncc(Cc3cnc(N4CCC(N(C)C)CC4)c(C)c3)n2n1 [Compound B184, 7-((6-(4-(dimethylamino)piperidin-1-yl)-5-methylpyridin-3-yl)methyl)-N2-(heptan-4-yl)imidazo[2,1-f][1,2,4]triazine-2,4-diamine]
4.9	CCCC(CCC)Oc1nc(N)c2ncc(Cc3cnc(N4CCC(N(C)C)CC4)c(C)c3)n2n1 [Compound B186, 7-((6-(4-(dimethylamino)piperidin-1-yl)-5-methylpyridin-3-yl)methyl)-2-(heptan-4-yloxy)imidazo[2,1-f][1,2,4]triazin-4-amine]
3.6	CCCC(CCC)Oc1nc(N)c2ncc(Cc3cnc(N4CCN(C(=O)CN(C)C)CC4)c(C)c3)n2n1 [Compound B188, 1-(4-(5-((4-amino-2-(heptan-4-yloxy)imidazo[2,1-f][1,2,4]triazin-7-yl)methyl)-3-methylpyridin-2-yl)piperazin-1-yl)-2-(dimethylamino)ethan-1-one]
7.9	CCCC(CCC)Nc1nc(N)c2ncc(Cc3cnc(N4CCNCC4)c(C)c3)n2n1 [Compound B191, N2-(heptan-4-yl)-7-((5-methyl-6-(piperazin-1-yl)pyridin-3-yl)methyl)imidazo[2,1-f][1,2,4]triazine-2,4-diamine]
